Laboratory results from publication PMC7349874, “High Content Screening Using New U2OS Reporter Cell Models Identifies Harmol Hydrochloride as a Selective and Competitive Antagonist of the Androgen Receptor” (Cells, 2020).

Key:
[1] = molecular target: T1, full-length wild-type AR (hAR) (Homo sapiens, UniProt P10275); test: Transactivation (luciferase) assay in U2OS-hAR-ARE-Luc reporter cells, screen and validation; type: cell-based
T1 sequence (P10275 1-920): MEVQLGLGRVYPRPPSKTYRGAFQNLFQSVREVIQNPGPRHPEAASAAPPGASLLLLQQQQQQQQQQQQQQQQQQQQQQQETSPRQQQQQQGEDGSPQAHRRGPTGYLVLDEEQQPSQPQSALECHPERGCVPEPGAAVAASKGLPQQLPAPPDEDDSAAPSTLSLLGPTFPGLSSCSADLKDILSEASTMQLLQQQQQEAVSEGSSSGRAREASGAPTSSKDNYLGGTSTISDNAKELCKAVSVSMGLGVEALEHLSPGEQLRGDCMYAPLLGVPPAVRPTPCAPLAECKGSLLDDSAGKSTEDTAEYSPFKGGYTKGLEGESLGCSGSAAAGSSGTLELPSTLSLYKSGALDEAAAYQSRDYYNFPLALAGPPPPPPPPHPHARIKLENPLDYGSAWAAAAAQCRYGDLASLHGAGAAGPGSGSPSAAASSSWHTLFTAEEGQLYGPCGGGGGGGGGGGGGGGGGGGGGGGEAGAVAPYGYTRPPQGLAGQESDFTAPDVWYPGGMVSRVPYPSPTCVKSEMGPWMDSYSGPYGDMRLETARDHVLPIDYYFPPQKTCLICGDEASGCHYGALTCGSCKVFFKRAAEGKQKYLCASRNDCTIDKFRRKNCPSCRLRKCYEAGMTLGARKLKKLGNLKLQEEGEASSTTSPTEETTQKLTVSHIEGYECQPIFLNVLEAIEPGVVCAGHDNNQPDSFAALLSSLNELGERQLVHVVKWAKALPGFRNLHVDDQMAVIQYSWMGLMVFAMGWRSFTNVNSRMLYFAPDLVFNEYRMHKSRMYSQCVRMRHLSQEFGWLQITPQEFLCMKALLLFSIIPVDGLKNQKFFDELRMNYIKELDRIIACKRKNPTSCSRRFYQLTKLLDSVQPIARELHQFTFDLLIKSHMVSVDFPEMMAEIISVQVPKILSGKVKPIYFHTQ
Method: U2OS-hAR-ARE(Rad9)-Luc and U2OS-hARv7-ARE(PB)-Luc were then used to screen the Prestwick phytochemical library®, containing 320 natural compounds, at four concentrations (0.3, 1, 3, 10 µM) in duplicate.

[2] = test system: U2OS-ARE-Luc control cells; test: Luciferase activity in U2OS-ARE-Luc control cells; conditions: validation, up to 3 µM, 16 h
[3] = test system: LNCaP spheroids
Method: (§1) prostate cancer cells. GAPDH was used as a loading control.
(§2) Spheroids were treated for 7 days with the indicated concentrations of each drug, stained with PI (1 mg/mL) for 30 min and […] was evaluated using the Celigo® imaging system. Results are expressed as mortality ratios as compared to untreated spheroids (set at 1). Each point represent s the m ean ± SEM of 3 […]
(§3) Mortality (ratio/control)
(§4) [Harmol Hydrochloride] (M)

[4] = test system: VCaP spheroids
Method: as §1, §2, §3, §4

[5] = molecular target: T2, mineralocorticoid receptor (MR) (Homo sapiens, UniProt P08235); test: Transactivation assay in HG5LN MR cells; type: cell-based; conditions: 16 h, 1 nM aldosterone, highest concentrations used (>1 µM)
T2 construct: expressed in transfected cells
T2 sequence (P08235 726-964 limits assumed): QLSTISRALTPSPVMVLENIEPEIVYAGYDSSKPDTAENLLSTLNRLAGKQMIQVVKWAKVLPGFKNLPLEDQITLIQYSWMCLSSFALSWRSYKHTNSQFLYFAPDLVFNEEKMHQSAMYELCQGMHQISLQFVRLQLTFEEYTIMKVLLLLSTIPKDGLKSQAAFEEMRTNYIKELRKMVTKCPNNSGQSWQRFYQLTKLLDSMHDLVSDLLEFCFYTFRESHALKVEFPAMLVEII
Excerpt: HG5LN MR and HG5LN PXR luciferase reporter cell lines were obtained by stable expression of individual ligand binding domains fused to GAL4 DNA binding domain in HG5LN (HeLa GAL4REx5-luciferase) cells, as previously described. HELN PR cells were obtained by stably expressing PR with the ERα DNA binding domain in HELN (HeLa ERE-luciferase) cells and HMLN GR cells were obtained by stable co-transfection of HeLa cells with a plasmid encoding for a glucocorticoid responsive gene (MMTV-Luc-SV-Neo) and a glucocorticoid receptor expressing plasmid, as previously described.
Agonistic activities were evaluated in HMLN GR, HELN PR, HG5LN MR, and HG5LN PXR cells, using dexamethasone 100 nM, R5020 100 nM, aldosterone 100 nM, and SR12813 3 μM as a positive control, respectively. […] RU486 was used as a control antagonist for GR and PR, and spironolactone for MR.
HMLN glucocorticoid receptor (GR), HG5LN mineralocorticoid receptor (MR), HELN progesterone receptor (PR) and HG5LN PXR cells were used to evaluate the antagonistic effect of the tested compounds on (A) the glucocorticoid receptor (GR), (B) the mineralocorticoid receptor (MR), (C) the progesterone receptor (PR) and (D) the agonistic activity towards the pregnane X receptor (PXR). […]

[6] = design: method as in PMID 20398925; conditions: cited from earlier work
[7] = test system: VCaP cells; test: Spheroid growth (CellTiter-Glo), VCaP; conditions: 7 days, 1 nM R1881
Method: (§5) Spheroids were generated by seeding prostate cancer cells in non-adherent U-bottom 96-well plates in medium supplemented with 5% of charcoal stripped FBS. VCaP, LNCaP-FGC, DU145, or PC3 cells were seeded in duplicate at a density of 2000, 500, 600, and 600 cells per well, respectively. […] Cell death was first evaluated by the incubation of the spheroids with propidium iodide (1 mg/mL) for 30 min, and quantitation of red fluorescence was performed using a Celigo® imaging cytometer (Nexcelom Bioscience). […] Then, proliferation was assessed following cell lysis with the CellTiter-Glo® Luminescent Cell Viability Assay reagent (Promega, Charbonnière, France), according to the manufacturer protocol. Quantification of the luminescence was performed using a MicroBeta Wallac luminometer (PerkinElmer), and percent growth was calculated relative to DMSO treated cells.
(§6) Spheroids were treated for 7 days, and cell death was evaluated by propidium iodide staining and fluorescence quantification, using the Celigo imaging system. Growth inhibition was then assessed by cell lysis with CellTiter-Glo, and quantification of the luminescence using a MicroBeta Wallac luminometer. Percent growth was calculated relative to dimethyl sulfoxide (DMSO) treated cells (n = 3 ± SEM).

[8] = test system: LNCaP cells; test: Spheroid growth (CellTiter-Glo), LNCaP; conditions: 7 days, 1 nM R1881
Method: as §5, §6

[9] = test system: AR target genes TMPRSS2, FKBP5, PSA; test: RT-qPCR of AR target genes in VCaP cells; conditions: 3 µM, 24 h, 1 nM R1881
Method: (§7) LNCaP and VCaP cells were seeded in 6-well plates (10^6 and 2 × 10^6 cells per well, respectively) and, 48 h later, complete medium was replaced by charcoal-stripped medium with 5% FBS. Cells were then treated for 24 h with the tested compounds, and RNA extraction was performed using the Quick RNA Miniprep kit (Zymo-Research, Irvine, CA, USA), according to the manufacturer’s protocol. Reverse transcription was performed with 0.5 µg total RNA using the SuperScript III reverse transcriptase kit (ThermoFisher, Waltham, MA, USA), according to the manufacturer’s protocol, in a final volume of 20 µL. The levels of genes transcripts were measured by real time PCR using a LightCycler 480 system (Roche Life Science, Penzberg, Germany) in the presence of SYBRGreen (SYBR® Premix Ex Taq^tm) and the following primers: FKBP5, sense 5′-[sequence]-3′; antisense 5′-[sequence]-3′; PSA, sense 5′-[sequence]-3′; antisense 5′-[sequence]-3′; TMPRSS2, sense 5′-[sequence]-3′, antisense 5′-[sequence]-3′; GR, sense 5′-[sequence]-3′, antisense 5′-[sequence]-3′; HPRT, sense 5′-[sequence]-3′; antisense 5′-[sequence]-3′; GAPDH, sense 5′-[sequence]-3′; antisense 5′-[sequence]-3′. Expression levels were evaluated with the ΔΔCt method and were normalized to GAPDH. Results are expressed as mRNA expression, relative to control (untreated cells), and are the mean ± SEM of 3 independent experiments.

[10] = test system: AR target genes TMPRSS2, FKBP5, PSA; test: RT-qPCR of AR target genes in LNCaP cells; conditions: 3 µM, 24 h, 1 nM R1881
Method: as §7

[11] = test system: GR; test: GR expression (RT-qPCR and Western blot) in VCaP cells; conditions: 3 µM, 24 h, 1 nM R1881
Method: (§8) LNCaP and VCaP cells were seeded in 6-well plates (10^6 and 2 × 10^6 cells per well, respectively) and, 48 h later, complete medium was replaced by charcoal-stripped medium with 5% FBS. Cells were then treated for 24 h with the tested compounds, and RNA extraction was performed using the Quick RNA Miniprep kit (Zymo-Research, Irvine, CA, USA), according to the manufacturer’s protocol. Reverse transcription was performed with 0.5 µg total RNA using the SuperScript III reverse transcriptase kit (ThermoFisher, Waltham, MA, USA), according to the manufacturer’s protocol, in a final volume of 20 µL. The levels of genes transcripts were measured by real time PCR using a LightCycler 480 system (Roche Life Science, Penzberg, Germany) in the presence of SYBRGreen (SYBR® Premix Ex Taq^tm) and the following primers: FKBP5, sense 5′-[sequence]-3′; antisense 5′-[sequence]-3′; PSA, sense 5′-[sequence]-3′; antisense 5′-[sequence]-3′; TMPRSS2, sense 5′-[sequence]-3′, antisense 5′-[sequence]-3′; GR, sense 5′-[sequence]-3′, antisense 5′-[sequence]-3′; HPRT, sense 5′-[sequence]-3′; antisense 5′-[sequence]-3′; GAPDH, sense 5′-[sequence]-3′; antisense 5′-[sequence]-3′. Expression levels were evaluated with the ΔΔCt method and were normalized to GAPDH. Results are expressed as mRNA expression, relative to control (untreated cells), and are the mean ± SEM of 3 independent experiments. […]

[12] = test system: GR; test: GR expression (RT-qPCR and Western blot) in LNCaP cells; conditions: 3 µM, 24 h, 1 nM R1881
Method: as §8

## Cc1c2ccncc2c(C)c2c1[nH]c1ccccc12 [ellipticine]
[1]; 1 nM versus 100 nM R1881
  Nature of AR inhibition (competitive or non-competitive): non-competitive manner
[1]; 0.3, 1, 3, 10 µM, 16 h, hit = AR transcriptional activity changed by more than 50% dose-dependently, <20% effect in control cells
  Results of 1st screen on AR: active inhibitors of AR transcriptional activity
[1]; six concentrations, absence or presence of 1 nM or 100 nM R1881
  Results of confirmatory screen (validation of AR inhibition): could impair the transcriptional activity of AR
[2]
  Effect on luciferase activity in control cells: no effect

## CNC(=O)c1ccc(N2C(=S)N(c3ccc(C#N)c(C(F)(F)F)c3)C(=O)C2(C)C)cc1F [enzalutamide, reference compound]
[3]
  Cell death (propidium iodide positive cells) versus untreated spheroids: did not significantly affect the number of propidium iodide positive cells
[4]
  Cell death (propidium iodide positive cells) versus untreated spheroids: did not significantly affect the number of propidium iodide positive cells
[5]
  Antagonistic activity towards MR: small antagonistic activity
[6]
  Cmin required to saturate binding to AR: 10 to 30 µM
[7]
  Growth of VCaP spheroids: could inhibit the growth
[8]
  Growth of LNCaP spheroids: could inhibit the growth of VCaP and LNCaP cells, tough to a lesser extent
[9]
  R1881-mediated expression of AR target genes TMPRSS2, FKBP5, PSA: more pronounced for enzalutamide than for harmol hydrochloride
[10]
  R1881-mediated expression of AR target genes TMPRSS2, FKBP5, PSA: more pronounced for enzalutamide than for harmol hydrochloride
[11]
  Expression of GR at the mRNA and protein levels: neither harmol nor enzalutamide treatment could significantly alter the expression of GR
[12]
  Expression of GR at the mRNA and protein levels: neither harmol nor enzalutamide treatment could significantly alter the expression of GR
